# Assay results published in US20110166121A1 (LG LIFE SCIENCES LTD., priority 2008, published 2011).
# Assays:
# [1] = tested on: Human platelet aggregation caused by ADP; test: Inhibition of ADP-induced platelet aggregation (Mimic-human PRP); assay type: cell-based; details: 20 μM ADP, human platelet concentrate diluted with PPP, absorption at 595 nm
# Outline: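 Human PRP diluted with PPP to 3–4×10^8 platelets/mL was preincubated 20 min at room temperature with compound (0.01–30 μM, DMSO), then stimulated with 20 μM ADP. Aggregation read as A595 increase at 3 min versus 0 and 20 μM ADP controls; Ki from sigmoidal non-linear regression.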
# Human P2Y12 receptor = target: T1, Human P2Y12 receptor (Homo sapiens, UniProt Q9H244); test: Human P2Y12 receptor cell membrane binding assay with [3H] 2-Mes-ADP; details: 1 nM [3H] 2-Mes-ADP, membranes of HEK cells expressing P2Y12 receptor; read-out: Binding activity (IC50)
# T1 construct: expressed in transfected cells; host or cells: HEK cells
# T1 sequence (Q9H244 whole entry): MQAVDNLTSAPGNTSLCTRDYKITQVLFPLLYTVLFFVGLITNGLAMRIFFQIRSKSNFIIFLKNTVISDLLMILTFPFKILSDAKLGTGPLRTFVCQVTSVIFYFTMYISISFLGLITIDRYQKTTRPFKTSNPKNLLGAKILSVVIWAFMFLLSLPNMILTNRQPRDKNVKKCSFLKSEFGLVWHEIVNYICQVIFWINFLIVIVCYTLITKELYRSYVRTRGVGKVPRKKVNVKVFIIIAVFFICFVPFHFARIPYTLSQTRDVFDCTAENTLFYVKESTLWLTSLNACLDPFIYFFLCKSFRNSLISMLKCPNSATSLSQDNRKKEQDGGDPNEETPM
# Outline: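 Membranes from HEK cells expressing human P2Y12 were incubated with compound and 1 nM [3H]2-MeS-ADP for 1 h at room temperature. Bound radioactivity was collected by GF/B filtration.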
Compound,Ki [1] [nM],IC50 (Human P2Y12 receptor) [nM]
"CCCc1cc2c(N3CCn4c(nnc4C(F)(F)F)C3)nc(OCc3ccccn3)nc2s1 [Example 3-23, 7-[6-Propyl-2-(pyridin-2-ylmethoxy)-thieno[2,3-d]pyrimidin-4-yl]-3-trifluoromethyl-5,6,7,8-tetrahydro-[1,2,4]triazolo[4,3-a]pyrazine]",> 4000,370
"CCCc1cc2c(N3CCn4c(nnc4C(F)(F)F)C3)nc(OCc3cccnc3)nc2s1 [Example 3-24, 7-[6-Propyl-2-(pyridin-3-ylmethoxy)-thieno[2,3-d]pyrimidin-4-yl]-3-trifluoromethyl-5,6,7,8-tetrahydro-[1,2,4]triazolo[4,3-a]pyrazine]",1480,160
"CCCc1cc2c(N3CCn4c(nnc4C(F)(F)F)C3)nc(OCc3ccncc3)nc2s1 [Example 3-25, 7-[6-Propyl-2-(pyridin-4-ylmethoxy)-thieno[2,3-d]pyrimidin-4-yl]-3-trifluoromethyl-5,6,7,8-tetrahydro-[1,2,4]triazolo[4,3-a]pyrazine]",930,170
"CCCc1cc2c(N3CCn4c(nnc4C(F)(F)F)C3)nc(OC3CNC3)nc2s1 [Example 3-26, 7-[2-(Azetidin-3-yloxy)-6-propyl-thieno[2,3-d]pyrimidin-4-yl]-3-trifluoromethyl-5,6,7,8-tetrahydro-[1,2,4]triazolo[4,3-a]pyrazine]",25,149
"CCCc1cc2c(N3CCn4c(nnc4C(F)(F)F)C3)nc(O)nc2s1 [Example 3-27, 6-Propyl-4-(3-trifluoromethyl-5,6-dihydro-8H-[1,2,4]triazolo[4,3-a]pyrazin-7-yl)-thieno[2,3-d]pyrimidin-2-ol]",8800,5380
"CCCc1cc2c(N3CCn4c(nnc4C(F)(F)F)C3)nc(Oc3ccccc3)nc2s1 [Example 3-28, 7-(2-Phenoxy-6-propyl-thieno[2,3-d]pyrimidin-4-yl)-3-trifluoromethyl-5,6,7,8-tetrahydro-[1,2,4]triazolo[4,3-a]pyrazine]",9700,179
"CCCc1cc2c(N3CCn4c(nnc4C(F)(F)F)C3)nc(Oc3cccnc3)nc2s1 [Example 3-29, 7-[6-Propyl-2-(pyridin-3-yloxy)-thieno[2,3-d]pyrimidin-4-yl]-3-trifluoromethyl-5,6,7,8-tetrahydro-[1,2,4]triazolo[4,3-a]pyrazine]",150,220
"CCCc1cc2c(N3CCn4c(nnc4C(F)(F)F)C3)nc(Oc3cccc(C(=O)OC)c3)nc2s1 [Example 3-30, 3-[6-Propyl-4-(3-trifluoromethyl-5,6-dihydro-8H-[1,2,4]triazolo[4,3-a]pyrazin-7-yl)-thieno[2,3-d]pyrimidin-2-yloxy]-benzoic acid methyl ester]",> 4000,280
"CCCc1cc2c(N3CCn4c(nnc4C(F)(F)F)C3)nc(Oc3cccc(C(=O)O)c3)nc2s1 [Example 3-31, 3-[6-Propyl-4-(3-trifluoromethyl-5,6-dihydro-8H-[1,2,4]triazolo[4,3-a]pyrazin-7-yl)-thieno[2,3-d]pyrimidin-2-yloxy]-benzoic acid]",2000,196
"CCCc1cc2c(N3CCn4c(nnc4C(F)(F)F)C3)nc(Oc3ccccc3C(=O)OC)nc2s1 [Example 3-32, 2-[6-Propyl-4-(3-trifluoromethyl-5,6-dihydro-8H-[1,2,4]triazolo[4,3-a]pyrazin-7-yl)-thieno[2,3-d]pyrimidin-2-yloxy]-benzoic acid methyl ester]",> 4000,650
"CCCc1cc2c(N3CCn4c(nnc4C(F)(F)F)C3)nc(Oc3ccccc3C(=O)O)nc2s1 [Example 3-33, 2-[6-Propyl-4-(3-trifluoromethyl-5,6-dihydro-8H-[1,2,4]triazolo[4,3-a]pyrazin-7-yl)-thieno[2,3-d]pyrimidin-2-yloxy]-benzoic acid]",> 4000,2220
"CCCc1cc2c(N3CCn4c(nnc4C(F)(F)F)C3)nc(Oc3ccc(C(=O)OC)cc3)nc2s1 [Example 3-34, 4-[6-Propyl-4-(3-trifluoromethyl-5,6-dihydro-8H-[1,2,4]triazolo[4,3-a]pyrazin-7-yl)-thieno[2,3-d]pyrimidin-2-yloxy]-benzoic acid methyl ester]",> 4000,473
"CCCc1cc2c(N3CCn4c(nnc4C(F)(F)F)C3)nc(Oc3ccc(C(=O)O)cc3)nc2s1 [Example 3-35, 4-[6-Propyl-4-(3-trifluoromethyl-5,6-dihydro-8H-[1,2,4]triazolo[4,3-a]pyrazin-7-yl)-thieno[2,3-d]pyrimidin-2-yloxy]-benzoic acid]",1400,99
"CCCc1cc2c(N3CCn4c(nnc4C(F)(F)F)C3)nc(Oc3ccccn3)nc2s1 [Example 3-36, 7-[6-Propyl-2-(pyridin-2-yloxy)-thieno[2,3-d]pyrimidin-4-yl]-3-trifluoromethyl-5,6,7,8-tetrahydro-[1,2,4]triazolo[4,3-a]pyrazine]",940,260
"CCCc1cc2c(N3CCn4c(nnc4C(F)(F)F)C3)nc(Oc3cccc(C#N)c3)nc2s1 [Example 3-37, 3-[6-Propyl-4-(3-trifluoromethyl-5,6-dihydro-8H-[1,2,4]triazolo[4,3-a]pyrazin-7-yl)-thieno[2,3-d]pyrimidin-2-yloxy]-benzonitrile]",1300,198
"CCCc1cc2c(N3CCn4c(nnc4C(F)(F)F)C3)nc(Oc3ccc(C#N)cc3)nc2s1 [Example 3-38, 4-[6-Propyl-4-(3-trifluoromethyl-5,6-dihydro-8H-[1,2,4]triazolo[4,3-a]pyrazin-7-yl)-thieno[2,3-d]pyrimidin-2-yloxy]-benzonitrile]",2200,179
"CCCc1cc2c(N3CCn4c(nnc4C(F)(F)F)C3)nc(Oc3ccc(CC(=O)OC)cc3)nc2s1 [Example 3-39, {4-[6-Propyl-4-(3-trifluoromethyl-5,6-dihydro-8H-[1,2,4]triazolo[4,3-a]pyrazin-7-yl)-thieno[2,3-d]pyrimidin-2-yloxy]-phenyl}-acetic acid methyl ester]",2400,300
"CCCc1cc2c(N3CCn4c(nnc4C(F)(F)F)C3)nc(Oc3ccc(CC(=O)O)cc3)nc2s1 [Example 3-40, {4-[6-Propyl-4-(3-trifluoromethyl-5,6-dihydro-8H-[1,2,4]triazolo[4,3-a]pyrazin-7-yl)-thieno[2,3-d]pyrimidin-2-yloxy]-phenyl}-acetic acid]",1200,230
"CCCc1cc2c(N3CCn4c(nnc4C(F)(F)F)C3)nc(Oc3ccc(CCC(=O)OC)cc3)nc2s1 [Example 3-41, 3-{4-[6-Propyl-4-(3-trifluoromethyl-5,6-dihydro-8H-[1,2,4]triazolo[4,3-a]pyrazin-7-yl)-thieno[2,3-d]pyrimidin-2-yloxy]-phenyl}-propionic acid methyl ester]",1500,390
"CCCc1cc2c(N3CCn4c(nnc4C(F)(F)F)C3)nc(Oc3ccc(CCC(=O)O)cc3)nc2s1 [Example 3-42, 3-{4-[6-Propyl-4-(3-trifluoromethyl-5,6-dihydro-8H-[1,2,4]triazolo[4,3-a]pyrazin-7-yl)-thieno[2,3-d]pyrimidin-2-yloxy]-phenyl}-propionic acid]",660,250
